Counter-ions that a name gives are not always drawn. Like-named read-outs stand apart in the source and are kept apart here.
Columns and labels:
CYP2C19 = CYP2C19 (Homo sapiens, UniProt P33261); assay: CYP450 enzyme testing, CYP2C19
hM2 = target: T1, hM2 (Homo sapiens, UniProt P08172); assay: side effect profiling, hM2; assay type: binding; settings: for hM2 binding: at 10 uM
T1 sequence (P08172 1-466): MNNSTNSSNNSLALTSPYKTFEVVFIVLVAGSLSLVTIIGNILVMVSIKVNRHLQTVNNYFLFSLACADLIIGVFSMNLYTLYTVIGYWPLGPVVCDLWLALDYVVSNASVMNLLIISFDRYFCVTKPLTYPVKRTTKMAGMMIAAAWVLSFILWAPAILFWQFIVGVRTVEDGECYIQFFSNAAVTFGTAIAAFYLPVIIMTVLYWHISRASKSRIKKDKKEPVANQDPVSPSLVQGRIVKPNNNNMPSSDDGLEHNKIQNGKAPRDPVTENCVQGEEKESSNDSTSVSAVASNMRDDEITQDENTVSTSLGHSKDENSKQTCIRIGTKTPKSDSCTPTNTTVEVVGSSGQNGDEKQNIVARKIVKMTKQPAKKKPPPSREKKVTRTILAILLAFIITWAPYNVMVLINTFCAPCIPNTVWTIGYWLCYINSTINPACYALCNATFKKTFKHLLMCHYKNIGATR

DOR = target: T2, DOR (Homo sapiens, UniProt P41143); assay: DOR [35S]GTPγS binding assay; assay type: biochemical; settings: Tables A, B
T2 construct: expressed in transfected cells; host or cells: CHO
Protocol: (§1) The [^35S]GTPγS functional assay was conducted to determine the efficacy of the compounds at the MOR, KOR and DOR. […] The Bradford protein assay was utilized to determine and adjust the concentration of protein required for the assay. Nonspecific binding was determined with 20 μM unlabeled GTPγS. Furthermore, 3 μM DAMGO/U50488H/SNC80 was included in the assay as the maximally effective concentration of a full agonist for the MOR/KOR/DOR. After incubation, the bound radioactive ligand was separated from the free radioligand by filtration through a GF/B glass fiber filter paper using a Brandel harvester. Bound radioactivity was determined by liquid scintillation counting. All assays were determined in duplicate and repeated at least three times. Net stimulated [^35S]GTPγS binding was defined as agonist-stimulated minus basal binding in the absence of agonist. Percent of DAMGO/U50488H/SNC80 stimulated [^35S]GTPγS binding was defined as (net-stimulated binding by ligand/net-stimulated binding by 3 μM DAMGO U50488H/SNC80)×100%.

hERG channel = hERG channel (Homo sapiens, UniProt Q12809); assay: hERG channel testing
[1] = Self-administration Studies, Abuse liability; settings: in vivo
MOR = MOR (Mus musculus, UniProt P42866); assay: MOR [35S]GTPγS functional assay (MOR-CHO membranes); assay type: biochemical; design: expressed in transfected cells; host or cells: CHO; settings: Tables A, B
Protocol: The [^35S]GTPγS functional assay was conducted to determine the efficacy of the compounds at the MOR. […] The Bradford protein assay was utilized to determine and adjust the concentration of protein required for the assay. Nonspecific binding was determined with 20 μM unlabeled GTPγS. Furthermore, 3 μM DAMGO was included in the assay as the maximally effective concentration of a full agonist for the MOR. After incubation, the bound radioactive ligand was separated from the free radioligand by filtration through a GF/B glass fiber filter paper and rinsed three times with ice-cold wash buffer (50 mM Tris-HCl, pH 7.2) using the Brandel harvester. Bound radioactivity was determined by liquid scintillation counting. All assays were determined in duplicate and repeated at least three times. Net stimulated [^35S]GTPγS binding was defined as agonist-stimulated minus basal binding in the absence of agonist. Percent of DAMGO-stimulated [^35S]GTPγS binding was defined as (net-stimulated binding by ligand/net-stimulated binding by 3 μM DAMGO)×100%.
Results were reported as mean values ±SEM.
as §1, with “The [^35S]-GTPγS binding assay was carried out as well to determine the functionality on the MOR of each compound. […] The [^35S]GTPγS” for “The [^35S]GTPγS”

CYP2D6 = CYP2D6 (Homo sapiens, UniProt P10635); assay: CYP450 enzyme testing, CYP2D6
[2] = system: self-administration rat model; assay: Self-administration Studies, Food vs Drug (heroin choice); assay type: in vivo

Sequence of hERG channel (Q12809 whole entry): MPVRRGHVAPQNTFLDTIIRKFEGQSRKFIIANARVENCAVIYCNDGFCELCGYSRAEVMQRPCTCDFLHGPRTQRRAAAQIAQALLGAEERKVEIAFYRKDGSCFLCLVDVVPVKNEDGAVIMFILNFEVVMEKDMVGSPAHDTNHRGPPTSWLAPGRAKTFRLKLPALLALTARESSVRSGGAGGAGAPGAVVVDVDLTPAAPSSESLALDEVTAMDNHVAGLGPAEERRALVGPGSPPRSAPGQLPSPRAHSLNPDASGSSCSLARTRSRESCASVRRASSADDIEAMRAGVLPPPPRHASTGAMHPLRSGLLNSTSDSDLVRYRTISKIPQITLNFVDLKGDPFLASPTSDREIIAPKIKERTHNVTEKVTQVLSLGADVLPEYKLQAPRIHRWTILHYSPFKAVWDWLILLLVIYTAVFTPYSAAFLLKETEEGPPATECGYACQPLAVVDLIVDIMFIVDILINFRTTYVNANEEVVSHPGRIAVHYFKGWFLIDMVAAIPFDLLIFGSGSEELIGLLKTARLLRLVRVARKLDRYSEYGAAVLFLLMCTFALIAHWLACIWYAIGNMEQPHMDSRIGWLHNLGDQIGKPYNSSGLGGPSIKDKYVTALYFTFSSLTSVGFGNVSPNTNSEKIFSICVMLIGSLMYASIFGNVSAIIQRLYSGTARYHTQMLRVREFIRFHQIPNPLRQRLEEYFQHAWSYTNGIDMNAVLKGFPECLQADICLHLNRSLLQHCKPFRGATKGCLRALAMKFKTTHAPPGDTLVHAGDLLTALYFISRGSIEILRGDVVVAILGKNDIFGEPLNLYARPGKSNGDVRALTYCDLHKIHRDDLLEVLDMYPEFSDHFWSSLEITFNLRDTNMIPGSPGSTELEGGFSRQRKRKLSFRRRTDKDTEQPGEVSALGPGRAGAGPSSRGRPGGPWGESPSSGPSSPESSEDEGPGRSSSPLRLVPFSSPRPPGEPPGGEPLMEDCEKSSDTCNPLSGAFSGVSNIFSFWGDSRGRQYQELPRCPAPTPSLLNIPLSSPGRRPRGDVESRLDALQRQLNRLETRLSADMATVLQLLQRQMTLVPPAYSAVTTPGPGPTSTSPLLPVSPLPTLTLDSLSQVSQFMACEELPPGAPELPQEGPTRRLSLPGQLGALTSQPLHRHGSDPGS
Sequence of CYP2D6 (P10635 whole entry): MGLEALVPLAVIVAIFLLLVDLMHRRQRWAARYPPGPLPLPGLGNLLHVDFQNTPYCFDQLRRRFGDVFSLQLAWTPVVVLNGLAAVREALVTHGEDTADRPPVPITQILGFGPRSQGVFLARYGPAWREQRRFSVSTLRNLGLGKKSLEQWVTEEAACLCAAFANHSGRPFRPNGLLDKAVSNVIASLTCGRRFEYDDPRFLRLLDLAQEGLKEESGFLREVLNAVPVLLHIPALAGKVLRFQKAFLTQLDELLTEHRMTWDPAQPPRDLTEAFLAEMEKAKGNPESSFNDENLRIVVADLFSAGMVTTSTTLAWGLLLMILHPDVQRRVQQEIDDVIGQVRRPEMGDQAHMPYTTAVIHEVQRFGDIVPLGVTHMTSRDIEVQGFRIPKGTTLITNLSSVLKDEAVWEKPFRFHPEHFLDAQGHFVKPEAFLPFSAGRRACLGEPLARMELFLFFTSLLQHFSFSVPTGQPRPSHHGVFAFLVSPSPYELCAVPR
T2 sequence (P41143 whole entry): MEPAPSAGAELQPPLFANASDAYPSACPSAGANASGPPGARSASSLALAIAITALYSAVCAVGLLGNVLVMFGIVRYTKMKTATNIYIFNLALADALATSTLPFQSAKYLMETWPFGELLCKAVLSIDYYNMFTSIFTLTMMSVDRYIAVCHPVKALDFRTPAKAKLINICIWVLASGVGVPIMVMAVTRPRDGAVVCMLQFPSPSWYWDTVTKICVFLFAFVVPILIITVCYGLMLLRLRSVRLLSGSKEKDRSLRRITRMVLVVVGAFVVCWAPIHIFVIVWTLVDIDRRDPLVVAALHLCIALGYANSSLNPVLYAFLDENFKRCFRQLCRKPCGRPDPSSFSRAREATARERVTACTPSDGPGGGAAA
Sequence of MOR (P42866 whole entry): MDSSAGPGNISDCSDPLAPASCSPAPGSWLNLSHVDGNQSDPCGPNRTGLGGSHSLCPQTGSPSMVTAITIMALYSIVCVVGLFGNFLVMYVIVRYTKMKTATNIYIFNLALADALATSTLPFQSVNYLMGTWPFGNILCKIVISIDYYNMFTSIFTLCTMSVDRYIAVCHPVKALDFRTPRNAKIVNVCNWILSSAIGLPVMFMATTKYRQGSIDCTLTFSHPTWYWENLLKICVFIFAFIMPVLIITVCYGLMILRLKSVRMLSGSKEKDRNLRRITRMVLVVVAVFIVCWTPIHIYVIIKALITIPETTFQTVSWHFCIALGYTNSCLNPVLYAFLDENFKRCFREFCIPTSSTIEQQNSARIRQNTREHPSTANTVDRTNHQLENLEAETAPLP
Sequence of CYP2C19 (P33261 whole entry): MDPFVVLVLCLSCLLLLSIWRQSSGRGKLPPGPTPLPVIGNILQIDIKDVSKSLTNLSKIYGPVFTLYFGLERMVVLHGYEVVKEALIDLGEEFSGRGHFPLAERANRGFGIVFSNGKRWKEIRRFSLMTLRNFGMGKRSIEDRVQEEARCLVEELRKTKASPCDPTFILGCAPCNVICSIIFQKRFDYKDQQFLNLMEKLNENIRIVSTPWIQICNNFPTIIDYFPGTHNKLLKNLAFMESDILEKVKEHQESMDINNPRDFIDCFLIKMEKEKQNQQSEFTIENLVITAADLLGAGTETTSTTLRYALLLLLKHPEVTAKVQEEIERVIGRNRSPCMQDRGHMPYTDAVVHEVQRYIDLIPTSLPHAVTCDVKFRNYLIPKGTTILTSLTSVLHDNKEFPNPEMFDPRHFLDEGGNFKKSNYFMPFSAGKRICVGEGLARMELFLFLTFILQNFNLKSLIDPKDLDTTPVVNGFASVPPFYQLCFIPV

## O=C(N[C@H]1CCC2(O)C3Cc4ccc(O)c5c4[C@@]2(CCN3CC2CC2)[C@H]1O5)c1ccc[nH]1 (stereo partly drawn) [Example 1 compound 1, 17-Cyclopropylmethyl-3,14β-dihydroxy-4,5α-epoxy-6a-[(2′-pyrrolyl)carboxamido]morphinan hydrochloride]
CYP2C19; human
  CYP2C19 inhibition (in words): Only moderate at CYP2D6 and CYP2C19
hM2
  Ki: 7280 nM
  hM2 binding: 58%
DOR
  35S-GTP[γS]-Binding DOR Efficacy (% max of SNC80): 50.94 ± 5.26%
hERG channel
  hERG channel testing (Eurofins): 2.6 µM
hERG channel; NIH
  hERG channel testing (NIH): 12.5 µM
[1]
  Self-administration Studies Abuse liability: No significant abuse liability
MOR
  35S-GTP[γS]-Binding MOR Efficacy (% max of DAMGO): 12.11 ± 2.64%
CYP2D6; human
  CYP2D6 inhibition (in words): Only moderate at CYP2D6 and CYP2C19
[2]
  Self-administration Studies Food vs Drug: reduce heroin choice and increase food choice

## O=C(N[C@H]1CC[C@@]2(O)[C@H]3Cc4ccc(O)c5c4[C@@]2(CCN3CC2CC2)[C@H]1O5)c1cccs1 [Example 1 compound 25, 17-Cyclopropylmethyl-3,14β-dihydroxy-4,5α-epoxy-6α-(2′-thienylcarboxamido)morphinan hydrochloride]
CYP2C19
  CYP2C19 inhibition: Only CYP2C19 inhibition (~3 uM)
hM2
  Ki: 1900 nM
  hM2 binding: 81%
DOR
  35S-GTP[γS]-Binding DOR Efficacy (% max of SNC80): 48.58 ± 3.41%
hERG channel
  hERG channel testing (Eurofins): 2.5 µM (Eurofins)
MOR; 35S-GTP[γS]-Binding MOR Potency EC50, nM
  EC50: 0.49 ± 0.09 nM
MOR
  35S-GTP[γS]-Binding MOR Efficacy (% max of DAMGO): 21.81 ± 6.17%

## O=C(N[C@H]1CC[C@@]2(O)[C@H]3Cc4ccc(O)c5c4[C@@]2(CCN3CC2CC2)[C@H]1O5)c1nccs1 [NTZ, 17-Cyclopropylmethyl-3,14β-dihydroxy-4,5α-epoxy-6α-(2′-thiazolylcarboxamido)morphinan hydrochloride]
hM2
  hM2 binding: hM2 (88% at 10 uM)
DOR
  35S-GTP[γS]-Binding DOR Efficacy (% max of SNC80): 46.51 ± 2.17%
DOR; read-out: 35S-GTP[γS]-Binding DOR Potency EC50
  EC50: 23.6 ± 4.29 nM
hERG channel
  hERG channel testing (Eurofins): 7.4 µM (Eurofins)
[1]
  Self-administration Studies Abuse liability: No significant abuse liability
MOR
  35S-GTP[γS]-Binding MOR Efficacy (% max of DAMGO): 11.29 ± 1.30%
MOR; read-out: 35S-GTP[γS]-Binding MOR Potency EC50
  EC50: 2.16 ± 0.38 nM
CYP2D6; human
  CYP2D6 inhibition (in words): potent at CYP2D6 inhibition
[2]
  Self-administration Studies Food vs Drug: reduce heroin choice and increase food choice in a

## O=C(N[C@H]1CC[C@@]2(O)[C@H]3Cc4ccc(O)c5c4[C@@]2(CCN3CC2CC2)[C@H]1O5)c1ccsc1 [Example 1 compound 31, 17-Cyclopropylmethyl-3,14β-dihydroxy-4,5α-epoxy-6α-(3′-thienylcarboxamido)morphinan hydrochloride]
CYP2C19
  CYP2C19 inhibition (in words): Only moderate at CYP2D6 and CYP2C19
hM2
  hM2 binding: hM2 (82% at 10 uM)
DOR
  35S-GTP[γS]-Binding DOR Efficacy (% max of SNC80): 58.5 ± 3.13%
hERG channel
  hERG channel testing (Eurofins): 1.3 µM (Eurofins)
[1]
  Self-administration Studies Abuse liability: No significant abuse liability
MOR
  35S-GTP[γS]-Binding MOR Efficacy (% max of DAMGO): 30.66 ± 4.44%
CYP2D6
  CYP2D6 inhibition (in words): Only moderate at CYP2D6 and CYP2C19
[2]
  Self-administration Studies Food vs Drug: reduce heroin choice and increase food choice in a

— patent publication US20250195504A1, “NALTREXAMINE DERIVATIVES BEARING 5-MEMBER HETEROCYCLIC RING SYSTEMS AND OPIOID RECEPTOR MODULATORS” (VIRGINIA COMMONWEALTH UNIVERSITY, priority 2022, published 2025)
